Test results reported in the COVID Moonshot data (paper PMC11187573), “Identification of SARS-CoV-2 Mpro inhibitors through deep reinforcement learning for de novo drug design and computational chemistry approaches” (RSC Medicinal Chemistry, 2024).

Target: SARS-CoV-2 Main Protease (SARS-CoV-2) (UniProt P0DTD1)

`O=C(NC[C@@]1(COc2ccc(C(F)(F)F)cn2)C[C@@H](O)[C@@H](O)C1)Nc1cccnc1` was tested, and the inhibition (50.0 µM) was 0%.
`CC(=O)Nc1cccc(N2CCCC2=O)c1` showed an inhibition (20.0 µM) of 11.4% and an inhibition (50.0 µM) of 22.7%.
Work on `Cc1ccncc1NC(=O)Cc1cc(Cl)cc(NS(N)(=O)=O)c1` yielded an IC50 of 14.5 µM and an inhibition (50.0 µM) of 87.9%.
Compound `OC[C@H]1O[C@H]([S][Au])[C@H](O)[C@@H](O)[C@@H]1O` (stereo in doubt) has an inhibition (50.0 µM) of 83.1%.
For `CN(C)c1ccc(N(Cc2ccccc2)C(=O)Cn2nnc3ccccc32)cc1`, the IC50 was 1.57 µM.
Work on `CC(C)C1=C(O)C(=O)C2=C(CC[C@H]3C(C)(C)CCC[C@]23C)C1=O` (stereo in doubt) yielded an inhibition (50.0 µM) of 10.2%.
Work on `O=C(Cn1nnc2ccccc21)N(Cc1cccc(Cl)c1)c1ccc(N2CCCCC2)cc1` yielded an IC50 of 6.02 µM.
With `Cc1ccncc1NC(=O)Cc1cc(Cl)cc(C2COC2)c1` the IC50 was 56.9 µM.
With `COc1ccccc1OCCC(=O)Nc1cncc2ccccc12` the IC50 was 85.4 µM.
With `O=C(Cc1cc(Cl)cc(Cc2ccn[nH]2)c1)Nc1cncc2ccccc12` the IC50 was 9.39 µM.
Compound `O=C(Cc1cncc2ccccc12)N(CCC1CCCCC1)c1cccc(Cl)c1` has an IC50 of 1.02 µM.
`COc1ccc2nnn(CC(=O)N(Cc3ccccn3)c3ccc(C4CCNCC4)cc3)c2c1` showed an IC50 of 32.2 µM and an inhibition (50.0 µM) of 94.8%.
Compound `CC(C)(C)C(=O)C(C#N)C(=O)Nc1ccc(Cl)cc1` (stereo not drawn) has an inhibition (50.0 µM) of 0%.
Work on `COc1cc(Cl)cc2c1OCC[C@@H]2C(=O)Nc1cncc2ccccc12` (stereo in doubt) yielded an IC50 of 10.2 µM.
For `COc1ccc2c(N)nn(C(=O)C3CCOc4ccc(Cl)cc43)c2c1` (stereo not drawn), the IC50 was 62.1 µM.
Work on `CN(CC(=O)Nc1ccccc1Br)C(=O)CCl` yielded an inhibition (50.0 µM) of 52.3%.
Work on `Cc1c(C(=O)CCl)c2ccccn2c1C(=O)c1ccc(F)cc1` yielded an IC50 of 0.706 µM and an inhibition (50.0 µM) of 94.7%.
For `O=C(Cc1cccc(Cl)c1)Nc1[nH]nc2cccc(F)c12`, the IC50 was 81.8 µM.
With `Cc1ccncc1N1CCC(c2cccc(Cl)c2)S1(=O)=O` (stereo not drawn) the IC50 was 68.2 µM.
`Cc1ccncc1NC(=O)Cc1cc(Cl)cc(-c2ccc(C3(C)CCO3)cc2)c1` (stereo not drawn) gave an IC50 of 15.3 µM.
`N#Cc1ccccc1NC(=O)[C@@H](c1ccccc1)N1Cc2ccccc2C1=O` (stereo in doubt) gave an IC50 of 57.9 µM.
Work on `O=C(c1cc(=O)[nH]c2ccccc12)N1CCN(c2cccc(Cl)c2)CC1` yielded an IC50 of 2.19 µM and an inhibition (50.0 µM) of 65.7%.
`CNC(=O)Nc1ccc(N(Cc2ccsc2)C(=O)Cn2nnc3ccccc32)cc1` showed an IC50 of 15.3 µM.
`O=C(Nc1c[nH]c(=O)c2ccccc12)C1CCOc2ccc(Cl)cc21` (stereo not drawn) was tested, and the IC50 was 83.7 µM.
For `Cn1c(C(NC(=O)Cc2cc3ccccc3[nH]2)c2cccc(Cl)c2)nc2ccccc21` (stereo not drawn), the IC50 was 31.4 µM.
`O=C(NCC1=[SH]C=CC1)[C@@H](c1ccccc1)N1Cc2ccccc2C1=O` (stereo in doubt) showed an IC50 of 82 µM.
With `Cc1ccncc1N1CCC(c2cccc(Cl)c2)C1=O` (stereo not drawn) the IC50 was 12.9 µM.
`O=C(Cn1nnc2ccccc21)Nc1cccc(Cl)c1` showed an IC50 of 29.4 µM and an inhibition (50.0 µM) of 55.1%.
Work on `Cc1ccncc1NC(=O)Cc1cc(Cl)cc(NS(C)(=O)=O)c1` yielded an inhibition (50.0 µM) of 54.6%.
With `O=C(c1cc(=O)[nH]c2ccccc12)N1CCN(Cc2cccc(C(F)(F)F)c2)CC1` the inhibition (50.0 µM) was 24.8%.
`COc1ccc(Cl)cc1OCCNC(=O)c1cc(=O)[nH]c2ccccc12` showed an IC50 of 0.692 µM.
In the case of `N#Cc1ncn(CC(=O)Nc2ccc(Br)cc2Cl)n1`, the IC50 is reported as 2.87 µM.
With `COc1ccc2c(=O)c(O)c(-c3ccc(OCc4ccccc4)c(OCc4ccccc4)c3)oc2c1` the inhibition (50.0 µM) was 14.1%.
In the case of `Cc1c(N)cncc1NC(=O)Cc1cccc(C#N)c1`, the IC50 is reported as 32.2 µM.
`CC(C)(C)c1ccc(N(C(=O)c2ccc(Cl)o2)C(C(=O)NCCc2cccc(F)c2)c2cccnc2)cc1` (stereo not drawn) was tested, and the IC50 was 0.515 µM and the inhibition (50.0 µM) was 69.3%.
`O=C(c1cc(=O)[nH]c2ccccc12)N1CCN(Cc2cccc(Cl)c2)CC1` gave an inhibition (50.0 µM) of 50.9%.
`O=C(c1cc(=O)[nH]c2ccccc12)N1CCN(c2cccc(Cl)c2)C(=O)C1` gave an IC50 of 9.61 µM.
`O=C(CN(C(=O)Cc1cccnc1)c1ccc(-c2ncccn2)cc1)N1CCNCC1` gave an inhibition (50.0 µM) of 0%.
Work on `CCc1cc(F)ccc1-c1cc(Cl)cc(CC(=O)Nc2cnccc2C)c1` yielded an IC50 of 26 µM.
`Cc1ccc(N(Cc2cccc(Cl)c2)C(=O)Cn2nnc3ccccc32)cc1` gave an IC50 of 3.3 µM.
In the case of `Cc1cc(C(=O)CCl)c(C)n1NC(=O)c1n[nH]c(=O)c2ccccc12`, the inhibition (50.0 µM) is reported as 42.3%.
For `Cc1ccncc1NC(=O)Cc1cc(Cl)cc(NC2CCC(F)(F)C2O)c1` (stereo not drawn), the IC50 was 25.7 µM.
Work on `Cc1oncc1C(=O)Nc1ccc(S(F)(F)(F)(F)F)cc1` yielded an inhibition (50.0 µM) of 0%.
`C[N+]1=C2C=C(NCCc3ccc(O)cc3)C(=O)c3[nH]cc(c32)CC1` showed an inhibition (50.0 µM) of 2.74%.
In the case of `O=C(Cc1cccc(Cl)c1)Nc1cncc2c1CCCN2`, the IC50 is reported as 4.04 µM.
Work on `O=C(Nn1nnc2ccccc21)C(Cc1cccc(Cl)c1)c1ccc(N2CCCCC2=O)cc1` (stereo not drawn) yielded an IC50 of 81.8 µM.
`O=C(Cc1cc(Cl)cc(CC2CC(=O)N2)c1)Nc1cncc2ccccc12` (stereo not drawn) was tested, and the IC50 was 4.42 µM.
Compound `Cc1ccncc1NC(=O)Cc1cc(Cl)cc(OCc2ncn[nH]2)c1` has an IC50 of 81 µM.
`Cc1ccncc1NC(=O)Cc1cc(Cl)cc(-c2cnn(C)c2C(F)F)c1` gave an IC50 of 16 µM.
In the case of `O=C(Cc1cccc(Cl)c1)Nc1cncc2c1CCCC2`, the IC50 is reported as 1.84 µM.
Compound `O=C(Cn1nnc2ccccc21)N(Cc1ccsc1)c1ccc(N2CCCCC2)cc1` has an IC50 of 6.29 µM.
Compound `CC(C)(O)CC1C2=C(Oc3c1c1c(c4ccccc34)OC(C)(C)C=C1)C(=O)c1ccccc1C2=O` (stereo not drawn) has an inhibition (50.0 µM) of 3.92%.
`O=C(Cc1cccc(Cl)c1)Nc1cccc2[nH]ncc12` was tested, and the IC50 was 23.6 µM.
Compound `O=C(Cc1cccc(Cl)c1)Nn1nnc2ccccc21` has an IC50 of 31 µM.
With `CC(C)(C)c1ccc(N(C(=O)c2cnc[nH]2)C(C(=O)NCCc2cccc(F)c2)c2cccnc2)cc1` (stereo not drawn) the IC50 was 1.05 µM and the inhibition (50.0 µM) was 100%.
For `C=CC(=O)N(c1ccc(I)cc1)C(C(=O)Nc1ccc(Cl)cc1)c1cncnc1` (stereo not drawn), the IC50 was 2.75 µM.
In the case of `O=C(CC(C[S][Au])C(=O)[O][Na])[O][Na]` (stereo not drawn), the inhibition (50.0 µM) is reported as 39.1%.
Compound `O=c1cc(-c2ccc(OCc3ccccc3)cc2)oc2ccccc12` has an inhibition (50.0 µM) of 35.9%.
`O=C(Cn1nnc2ccccc21)N(Cc1cccc(Cl)c1)c1ccc(N2CCOCC2)cc1` was tested, and the IC50 was 3.79 µM.
In the case of `O=C(Cc1cccc(Cl)c1)Nc1n[nH]c2ccc(F)cc12`, the IC50 is reported as 88.6 µM.
`Cc1ccncc1NC(=O)Cc1cc(Cl)cc(NCC(C)(C)C#N)c1` gave an IC50 of 32.9 µM.
Compound `Cc1cc(C(F)(F)F)nc2c1c(N)nn2C(=O)C1CCOc2ccc(Cl)cc21` (stereo not drawn) has an IC50 of 57.8 µM.
Compound `O=C(Cc1cncc2ccccc12)Nc1cccc(Cl)c1` has an IC50 of 7.2 µM.
`Cc1noc(COc2cc(Cl)cc(CC(=O)Nc3cnccc3C)c2)n1` was tested, and the IC50 was 24.3 µM.
`O=C(Nc1cncc2ccccc12)C1(CCC2CC2)CCOc2ccc(Cl)cc21` (stereo not drawn) showed an IC50 of 93.9 µM.
`Cc1cc(O)c2c(c1)C1(O)CC(C2=O)C2=C1C(=O)c1c(O)cccc1C2=O` (stereo not drawn) was tested, and the IC50 was 58.2 µM and the inhibition (50.0 µM) was 81.1%.
`Cc1ccncc1NC(=O)Cc1cc(Cl)cc(OC2COC2)c1` was tested, and the IC50 was 15.3 µM.
`O=C(Nc1n[nH]c2ccnc(Br)c12)C1CCOc2ccc(Cl)cc21` (stereo not drawn) gave an IC50 of 74.2 µM.
In the case of `Cc1ccncc1NC(=O)C(C)c1cc(Cl)cc(OC2CC(=O)N2)c1` (stereo not drawn), the IC50 is reported as 88.1 µM.
Work on `COc1cccc(C2=N/C(=C/c3sccc3C)C(=O)O2)c1` yielded an IC50 of 5.07 µM and an inhibition (50.0 µM) of 77.6%.
Compound `O=c1c(O)c(-c2cc(OCc3ccccc3)ccc2OCc2ccccc2)oc2ccccc12` has an inhibition (50.0 µM) of 0.254%.
Compound `Cc1ccncc1NC(=O)Cc1cc(Cl)cc(NC2CCCC2O)c1` (stereo not drawn) has an IC50 of 38.9 µM and an inhibition (50.0 µM) of 61.5%.
`O=C1C(=O)N(Cc2ccccc2)c2ccc([N+](=O)[O-])cc21` showed an IC50 of 26.9 µM.
Compound `COc1ccc2c(=O)cc(-c3cc(OCc4ccccc4)ccc3OC)oc2c1` has an inhibition (50.0 µM) of 1.98%.
Compound `O=C(c1cncc2ccccc12)N1CCN(c2cccc(Cl)c2)CC1` has an IC50 of 0.833 µM.
With `CC(C)(C)N1C=CN(C(C)(C)C)[CH]1[Au][Cl]` the IC50 was 0.117 µM and the inhibition (50.0 µM) was 100%.
Compound `Cc1ccncc1NC(=O)Cc1cc(Cl)cc(-c2ccc(S(C)(=O)=O)cc2Cl)c1` has an IC50 of 19.5 µM.
With `O=C(Nc1cc(=O)[nH]c2ccccc12)C1CCOc2ccc(Cl)cc21` (stereo not drawn) the IC50 was 48 µM.
`Cc1ccc(N(Cc2cscn2)C(=O)Cc2cncc3ccccc23)cc1` was tested, and the IC50 was 13.6 µM.
In the case of `COc1ccc(OCc2ccccc2)cc1-c1cc(=O)c2ccccc2o1`, the inhibition (50.0 µM) is reported as 7.52%.
For `Cc1cc2c(c(O)c1-c1c(C)cc(O)c3c1C(=O)C=CC3=O)C(=O)C=CC2=O`, the IC50 was 8.41 µM and the inhibition (50.0 µM) was 100%.
Work on `Cc1ccncc1NC(=O)Cc1cc(Cl)cc(OCc2cc(-c3ccc(Cl)cc3)no2)c1` yielded an IC50 of 48.8 µM and an inhibition (50.0 µM) of 41.8%.
With `Cc1ccncc1NC(=O)Cc1cc(Cl)cc(/C=C(/c2ccccc2)C(F)(F)F)c1` the IC50 was 15.3 µM.
With `O=C(Nc1ccccc1)[C@@H](c1ccccc1)N1Cc2ccccc2C1=O` (stereo in doubt) the IC50 was 99.8 µM.
`O=c1ccc2c3ccc(=O)c4c(O)ccc(c5ccc(O)c1c52)c43` gave an inhibition (50.0 µM) of 42.5%.
With `Cc1ccn2cnnc2c1NC(=O)Cc1cccc(Cl)c1` the IC50 was 83.4 µM.
`C=C1CCC[C@H]2[C@](C)(CC3=C(O)C(=O)C=C(OC)C3=O)[C@@H](C)CC[C@]12C` (stereo in doubt) showed an inhibition (50.0 µM) of 2.35%.
With `O=C(Cc1cccc(Cl)c1)Nc1nnc2ccccn12` the IC50 was 93.9 µM.
Work on `O=C(Cc1cccc(Cl)c1)Nc1cnccc1-c1ccccc1` yielded an IC50 of 25.1 µM.
`CC(C)CCN1C(=O)C(=O)c2cc(Br)ccc21` gave an IC50 of 24.3 µM.
Work on `CCC(=O)Nc1ccc(N(Cc2cscn2)C(=O)Cn2nnc3ccccc32)cc1` yielded an IC50 of 46.1 µM.
For `Cc1oncc1C(=O)Nc1ccc(C(F)(F)F)cc1`, the inhibition (50.0 µM) was 0%.
`O=C(Cc1cncc2ccccc12)Nc1cc(Cl)cc(OC2CCC(=O)N2)c1` (stereo not drawn) showed an IC50 of 19.4 µM.
`Cc1ccncc1NC(=O)Cc1cc(Cl)cc(-c2ccc(C3CC3(F)F)cc2)c1` (stereo not drawn) gave an IC50 of 2.83 µM.
Work on `Cc1ccc(NC2=C(c3ccccc3)C(=O)N(Cc3cccnc3)C2=O)cc1Cl` yielded an IC50 of 32.2 µM.
For `C[C@@H]1C[C@H](C(=O)Nc2cncc3ccccc23)c2cc(Cl)ccc2O1` (stereo in doubt), the IC50 was 2.66 µM.
`COc1ccc2c(=O)cc(-c3ccc(OCc4ccccc4)cc3)oc2c1` gave an inhibition (50.0 µM) of 10.7%.
`CN(C)c1ccc(N(Cc2cscn2)C(=O)Cn2nnc3ccccc32)cc1` was tested, and the IC50 was 14.3 µM.
With `O=C(c1cc(=O)[nH]c2ccccc12)N1CCN(c2cccc(C(F)(F)F)c2)CC1` the IC50 was 5.65 µM and the inhibition (50.0 µM) was 71%.
`O=C(O)c1cn(-c2ccc(F)cc2)c2cc(N3CCNCC3)c(F)cc2c1=O` gave an inhibition (50.0 µM) of 20%.
`C[C@@H]1C[C@@H](C(=O)Nc2cncc3ccccc23)c2cc(Cl)ccc2O1` (stereo in doubt) gave an IC50 of 0.524 µM.
In the case of `COc1c(Cl)cccc1OCCNC(=O)c1cc(=O)[nH]c2ccccc12`, the IC50 is reported as 16.5 µM.
For `O=C(Nc1cncc2ccccc12)[C@H]1COc2ccc(Cl)cc2C1` (stereo in doubt), the IC50 was 37.7 µM.
